From patent publication US12077503B2, “Substituted cyclic amides and their use as herbicides” (FMC CORPORATION, priority 2015, dated 2024)

Key:
Format in all cases: in vivo
[1] = test system: barley, winter (winter barley Hordeum vulgare); test: Test D preemergence; details: scale 0 to 100
In short: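 Test chemicals, formulated in a non-phytotoxic solvent blend including surfactant, are applied preemergence to seeded silt loam soil. Response is judged visually against controls after approximately 21 d in a controlled environment, on a scale where 0 is no effect and 100 is complete control.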

[2] = test system: poinsettia, wild (wild poinsettia, Euphorbia heterophylla); test: Test E preemergence; details: scale 0 to 100
In short: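 Greenhouse test: seeds in silt loam treated preemergence, or 1- to 4-leaf plants in peat-based potting medium treated postemergence, with surfactant-containing solvent formulation of compound; assessed 14 to 21 d later. Scores use a 0 to 100 scale where 100 means complete control.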

[3] = test system: ivy-leaved morning glory (Ipomoea hederacea); test: Test G Pre-Emergence Protocol; details: Ipomoea, pre-emergence, 312 h, evaluated after 13 days; for pest or weed control at 15.625 g/ha: 15.625 g ai/ha, read-out: Morning-glory, Ivy-leaved damage rating (100=total damage to plant; 0=no damage to plant); for pest or weed control at 62.5 g/ha: 62.5 g ai/ha, 100=total damage to plant, 0=no damage to plant, read-out: plant damage rating, Morningglory, Ivy-leaved; for pest or weed control at 250 g/ha: 250 g ai/ha, read-out: Morningglory, Ivy-leaved damage rating (100=total damage to plant; 0=no damage to plant)
Method: (§1) Seeds of corn (Zea mays), giant foxtail (Setaria faberi), barnyardgrass (Echinochloa crus-galli), ivy-leaved morning glory (Ipomoea hederacea), redroot pigweed (Amaranthus retroflexus) and velvetleaf (Abutilon theophrasti) were sown in standard soil in pots. After cultivation for one day under controlled conditions in a glasshouse (at 24/16° C., day/night; 14 hours light; 65% humidity), the plants were sprayed with an aqueous spray solution derived from the formulation of the technical active ingredient in acetone/water (50:50) solution containing 0.5% Tween 20 (polyoxyethylene sorbitan monolaurate, CAS RN 9005-64-5) to give a final dose of 15.625, 62.5 or 250 g/ha of test compound.
(§2) The test plants were then grown on under controlled conditions in a glasshouse (at 24/16° C., day/night; 14 hours light; 65% humidity) and watered twice daily. After 13 days the test was evaluated (100=total damage to plant; 0=no damage to plant). A dash (-) means no test result.

[4] = test system: barnyardgrass (Echinochloa crus-galli); test: Test G Pre-Emergence Protocol; details: Echinochloa crus-galli, pre-emergence, 312 h, evaluated after 13 days; for pest or weed control at 15.625 g/ha: 15.625 g ai/ha, read-out: Barnyard grass damage rating (100=total damage to plant; 0=no damage to plant); for pest or weed control at 62.5 g/ha: 62.5 g ai/ha, 100=total damage to plant, 0=no damage to plant, read-out: plant damage rating, Barnyardgrass; for pest or weed control at 250 g/ha: 250 g ai/ha, read-out: Barnyardgrass damage rating (100=total damage to plant; 0=no damage to plant)
Method: as §1, §2

corn (Zea mays) = test: Test G Pre-Emergence Protocol; details: Zea mays, pre-emergence, 312 h, evaluated after 13 days; for plant injury at 15.625 g/ha: 15.625 g ai/ha; for plant injury at 15.625 g/ha / plant injury at 250 g/ha: read-out: Corn damage rating (100=total damage to plant; 0=no damage to plant); for plant injury at 62.5 g/ha: 62.5 g ai/ha, 100=total damage to plant, 0=no damage to plant, read-out: plant damage rating, Corn; for plant injury at 250 g/ha: 250 g ai/ha
Method: as §1, §2

[5] = test system: redroot pigweed (Amaranthus retroflexus); test: Test G Pre-Emergence Protocol; details: Amaranthus retroflexus, pre-emergence, 312 h, evaluated after 13 days; for pest or weed control at 15.625 g/ha: 15.625 g ai/ha; for pest or weed control at 15.625 g/ha / pest or weed control at 250 g/ha: read-out: Pigweed, Redroot damage rating (100=total damage to plant; 0=no damage to plant); for pest or weed control at 62.5 g/ha: 62.5 g ai/ha, 100=total damage to plant, 0=no damage to plant, read-out: plant damage rating, Pigweed, Redroot; for pest or weed control at 250 g/ha: 250 g ai/ha
Method: as §1, §2

[6] = test system: giant foxtail (Setaria faberi); test: Test G Pre-Emergence Protocol; details: Setaria faberi, pre-emergence, 312 h, evaluated after 13 days; for pest or weed control at 15.625 g/ha: 15.625 g ai/ha; for pest or weed control at 15.625 g/ha / pest or weed control at 250 g/ha: read-out: Foxtail, Giant damage rating (100=total damage to plant; 0=no damage to plant); for pest or weed control at 62.5 g/ha: 62.5 g ai/ha, 100=total damage to plant, 0=no damage to plant, read-out: plant damage rating, Foxtail, Giant; for pest or weed control at 250 g/ha: 250 g ai/ha
Method: as §1, §2

[7] = test system: velvetleaf (Abutilon theophrasti); test: Test G Pre-Emergence Protocol; details: Abutilon theophrasti, pre-emergence, 312 h, evaluated after 13 days; for pest or weed control at 15.625 g/ha: 15.625 g ai/ha; for pest or weed control at 15.625 g/ha / pest or weed control at 250 g/ha: read-out: Velvetleaf damage rating (100=total damage to plant; 0=no damage to plant); for pest or weed control at 62.5 g/ha: 62.5 g ai/ha, 100=total damage to plant, 0=no damage to plant, read-out: plant damage rating, Velvetleaf; for pest or weed control at 250 g/ha: 250 g ai/ha
Method: as §1, §2

SMILES	Plant response rating: Barley, Winter ([1]; 31 g ai/ha)	Plant response rating: Barley, Winter ([1]; 62 g ai/ha)	Plant response rating: Barley, Winter ([1]; 125 g ai/ha)	Plant response rating: Barley, Winter ([1]; 250 g ai/ha)	Plant response rating: Poinsettia, Wild ([2]; 31 g ai/ha)	Plant response rating: Poinsettia, Wild ([2]; 62 g ai/ha)	Plant response rating: Poinsettia, Wild ([2]; 125 g ai/ha)	Plant response rating: Poinsettia, Wild ([2]; 250 g ai/ha)	pest or weed control at 15.625 g/ha [3]	pest or weed control at 62.5 g/ha [3]	pest or weed control at 250 g/ha [3]	pest or weed control at 15.625 g/ha [4]	pest or weed control at 62.5 g/ha [4]	pest or weed control at 250 g/ha [4]	plant injury at 15.625 g/ha (corn (Zea mays))	plant injury at 62.5 g/ha (corn (Zea mays))	plant injury at 250 g/ha (corn (Zea mays))	pest or weed control at 15.625 g/ha [5]	pest or weed control at 62.5 g/ha [5]	pest or weed control at 250 g/ha [5]	other results
CN1CC(c2ccc(C(F)(F)F)cc2)C(C(=O)Nc2ccccc2S(C)(=O)=O)C1=O (centres unmarked) [Compound 624]	0	0	0	40	20	20	30	40													
CN1CC(c2cccc(C(F)(F)F)c2)C(C(=O)Nc2cccc(F)c2F)C1=O (centres unmarked) [Compound 636]	5	45	55	80																	
CN1CC(c2cccc(C(F)(F)F)c2)C(C(=O)Nc2ccccc2S(C)(=O)=O)C1=O (centres unmarked) [Compound 637]	0	0	50	60	0	0	20	25													
Cc1ccc([C@H]2CN(C)C(=O)[C@@H]2C(=O)Nc2cccnc2F)cc1 [Compound 1398]									0%	60%	80%	80%	90%	90%	20%	80%	90%	20%	60%	80%	pest or weed control at 15.625 g/ha [6]: 90%; pest or weed control at 62.5 g/ha [6]: 90%; pest or weed control at 250 g/ha [6]: 90%; pest or weed control at 15.625 g/ha [7]: 0%; pest or weed control at 62.5 g/ha [7]: 60%; pest or weed control at 250 g/ha [7]: 80%
Cc1ccc([C@H]2CN(C)C(=O)[C@@H]2C(=O)Nc2ccc(F)nc2F)cc1 [Compound 1402]									40%	70%	80%	80%	90%	90%	60%	80%	90%	0%	80%	80%	pest or weed control at 15.625 g/ha [6]: 90%; pest or weed control at 62.5 g/ha [6]: 90%; pest or weed control at 250 g/ha [6]: 90%; pest or weed control at 15.625 g/ha [7]: 0%; pest or weed control at 62.5 g/ha [7]: 70%; pest or weed control at 250 g/ha [7]: 80%
